From patent US12509429B2, “Hydroxybenzamide derivatives and methods of use in treating diabetes” (THE BOARD OF REGENTS OF THE UNIVERSITY OF OKLAHOMA, priority 2022, dated 2025)
Read-outs that look alike come from different tables or passages of the source.

Legend:
INS-1 cells [1] = test: Cell viability assay: protection of INS-1 cells from tunicamycin (Tm)-induced loss of viability (CellTiter-Glo, intracellular ATP); assay type: cell-based, rat; conditions: for Emax / EC50: Rattus norvegicus; for Emax: % rescue from Tm (0.15 μg/mL)-induced reduction of INS-1 cell viability (intracellular ATP), Tm alone 0%, DMSO without Tm 100%, 72 h, read-out: Maximum % of Protection; for EC50: INS-1 cell viability, Tm 0.15 μg/mL, ten 2-fold serial titration points, GraphPad Prism
Method: INS-1 cells were resuspended in RPMI 1640 medium containing 10% FBS and seeded at 5×10^3 cells/well in a 384-well plate. After overnight 24 h incubation, compounds were added to the wells at the indicated concentration using a pin-transfer robot (PerkinElmer). Tm in RPMI 1640 medium containing 10% FBS was then added at a final concentration of 0.15 μg/mL. After 72 h, the medium was removed and 20 μL of CellTiter-Glo reagent (Promega) was added. Luminescence was measured 10 min later using a Synergy Neo2 plate reader (Biotek).
Hydroxy benzamide (HBA) derivatives were synthesized based on various scaffolds and evaluated for their viability of rat INS-1 β cells in the presence of tunicamycin (Tm), a potent ER stress inducer that inhibits N-linked glycosylation of proteins. The maximum activities and the concentrations that reach half-maximal activity (EC50) of the compounds were evaluated by the degree of increase in viability of INS-1 cells co-treated with the compounds in the presence of Tm compared with Tm treatment alone.

INS-1 cells [2] = conditions: earlier work; protection of β-cell survival against ER stress; cited from earlier work

Row | Structure (SMILES) | Emax (INS-1 cells [1]; INS1) [%] | EC50 (INS-1 cells [1]; INS1) [µM] | other results
1 | O=C(NCc1ccc(C(F)(F)F)cc1)c1cccc(O)c1O [Compound 3g, 2,3-Dihydroxy-N-(4-(trifluoromethyl)benzyl)benzamide] | 100 | 3.1 | –
2 | CC(C)c1ccc(CNC(=O)c2cccc(O)c2)cc1 [Compound 3o, 3-Hydroxy-N-(4-isopropylbenzyl)benzamide] | 82 | 1.7 | –
3 | O=C(NCc1ccc(C(F)(F)F)cc1)c1cccc(OCc2cccc(C(F)(F)F)c2)c1 [Compound 3n, N-(4-(Trifluoromethyl)benzyl)-3-((3-(trifluoromethyl)benzyl)oxy)benzamide] | 58 | 6.3 | β-cell protective activity (in words) (INS-1 cells [1]; INS-1 cells with Tm): markedly diminished activity
4 | COc1cc(CNC(=O)c2ccc(O)c(OC)c2)ccc1O [Compound 3t, 4-Hydroxy-N-(4-hydroxy-3-methoxybenzyl)-3-methoxybenzamide] | 55 | 29.1 | β-cell protective activity (in words) (INS-1 cells [1]; INS-1 cells with Tm): equally poor β-cell protective activity
5 | O=C(NCc1ccc(C(F)(F)F)cc1)c1ccc(O)c(O)c1 [Compound 3f, 3,4-Dihydroxy-N-(4-(trifluoromethyl)benzyl)benzamide] | 100 | 2.2 | Concentration at which maximal protection is reached (INS-1 cells [1]; text of b115, unit printed as PM, unit of the source corrected): 10 µM
6 | COc1ccc(-c2ncc(-c3ccc(C(F)(F)F)cc3)[nH]2)cc1 [Compound 1c, 2-(4-Methoxyphenyl)-5-(4-(trifluoromethyl)phenyl)-1H-imidazole] | 17 | 0.21 | β-cell protective activity (in words) (INS-1 cells [1]; INS-1 cells with Tm): no improvement
7 | Cc1ccc(C)c(NC(=O)c2nnn(-c3cccc(Cl)c3C)c2C)c1 [Compound 1, 1-(3-chloro-2-methylphenyl)-N-(2,5-dimethylphenyl)-5-methyl-1H-1,2,3-triazole-4-carboxamide, reference compound] | 87 | 2.8 | maximal activity (INS-1 cells [2]): 87%
8 | CCc1ccc(C(=O)NCc2cccc(C(F)(F)F)c2)cc1 [Compound 3b, 4-Ethyl-N-(3-(trifluoromethyl)benzyl)benzamide] | 43 | 4.4 | β-cell protective activity (in words) (INS-1 cells [1]; INS-1 cells with Tm): poorer β-cell protective activity
9 | COc1cc(-c2ncc(-c3ccc(C(F)(F)F)cc3)[nH]2)ccc1O [Compound 1b, 2-Methoxy-4-(5-(4-(trifluoromethyl)phenyl)-1H-imidazol-2-yl)phenol] | 7 | 0.26 | β-cell protective activity (in words) (INS-1 cells [1]; INS-1 cells with Tm): no improvement
10 | COc1cccc(C(=O)NCc2ccc(C(F)(F)F)cc2)c1 [Compound 3j, 3-Methoxy-N-(4-(trifluoromethyl)benzyl)benzamide] | 71 | 25 | –
11 | O=C(NCc1ccc(C(F)(F)F)cc1)c1cccc(OCC2CCCCC2)c1 [Compound 3k, 3-(Cyclohexylmethoxy)-N-(4-(trifluoromethyl)benzyl)benzamide] | 100 | 0.72 | –
12 | COc1cccc(COc2cccc(C(=O)NCc3ccc(C(F)(F)F)cc3)c2)c1 [Compound 3m, 3-((3-Methoxybenzyl)oxy)-N-(4-(trifluoromethyl)benzyl)benzamide] | 81 | 4.1 | –
13 | CN(C)c1ccc(CNC(=O)c2cccc(O)c2)cc1 [Compound 3p, N-(4-(Dimethylamino)benzyl)-3-hydroxybenzamide] | 43 | 7.1 | –
14 | COc1cccc(NC(=O)NCc2ccc(C(F)(F)F)cc2)c1 [Compound 5b, 1-(3-Methoxyphenyl)-3-(4-(trifluoromethyl)benzyl)urea] | 94 | 1.6 | –
15 | Cc1c(Cl)cccc1C(=O)NCc1cccc(C(F)(F)F)c1 [Compound 3a, 3-Chloro-2-methyl-N-(3-(trifluoromethyl)benzyl)benzamide] | 83 | 10 | –
16 | COc1cc(CNC(=O)c2cccc(O)c2)ccc1O [Compound 3s, 3-Hydroxy-N-(4-hydroxy-3-methoxybenzyl)benzamide] | 57 | 28.7 | –
17 | COc1ccc(CNc2ncc(-c3ccccc3OC)[nH]2)cc1 [Compound 2b, N-(4-methoxybenzyl)-5-(2-methoxyphenyl)-1H-imidazol-2-amine] | 9 | 0.021 | β-cell protective activity (in words) (INS-1 cells [1]; INS-1 cells with Tm): reduced the protecting activity
18 | O=C(NCc1cccc(C(F)(F)F)c1)c1cccc(O)c1 [Compound 3c, 3-Hydroxy-N-(3-(trifluoromethyl)benzyl)benzamide] | 37 | 9.9 | –
19 | COc1cc(C(=O)NCc2cccc(C(F)(F)F)c2)ccc1O [Compound 3e, 4-Hydroxy-3-methoxy-N-(3-(trifluoromethyl)benzyl)benzamide] | 100 | 3.1 | –
20 | COc1ccc(CNc2ncc(-c3ccc(C(F)(F)F)cc3)[nH]2)cc1 [Compound 2a, N-(4-methoxybenzyl)-5-(4-(trifluoromethyl)phenyl)-1H-imidazol-2-amine] | 18 | 0.05 | –
21 | COc1ccc(CNC(=O)c2cccc(O)c2)cc1 [Compound 3r, 3-Hydroxy-N-(4-methoxybenzyl)benzamide] | 65 | 21.3 | –
22 | Oc1cccc(-c2ncc(-c3ccc(C(F)(F)F)cc3)[nH]2)c1O [Compound 1a, 3-(5-(4-(Trifluoromethyl)phenyl)-1H-imidazol-2-yl)benzene-1,2-diol] | 14 | 0.26 | Toxicity at rising compound concentration (in words) (INS-1 cells [1]; INS-1 cells with Tm): became toxic when the compound concentration arose; β-cell protective activity (in words) (INS-1 cells [1]; INS-1 cells with Tm): some β-cell protective activity at sub-micro molar concentrations
23 | O=C(NCc1cccc(O)c1)c1cccc(O)c1 [Compound 3q, 3-Hydroxy-N-(3-hydroxybenzyl)benzamide] | 22 | 18.3 | –
24 | O=C(NCc1cccc(C(F)(F)F)c1)c1ccc(O)c(O)c1 [Compound 3d, 3,4-Dihydroxy-N-(3-(trifluoromethyl)benzyl)benzamide] | 51 | 20.5 | –
25 | O=C(NCc1ccc(C(F)(F)F)cc1)c1cccc(OCC2CCNCC2)c1 [Compound 3l, 3-(Piperidin-4-ylmethoxy)-N-(4-(trifluoromethyl)benzyl)benzamide] | 81 | 2.1 | –
26 | O=C(Cc1cccc(O)c1)NCc1ccc(C(F)(F)F)cc1 [Compound 4a, 2-(3-Hydroxyphenyl)-N-(4-(trifluoromethyl)benzyl)acetamide] | – | 3.5 | Emax (INS-1 cells [1]; INS1, 72 h): 32%
27 | O=C(NCc1ccc(C(F)(F)F)cc1)Nc1cccc(O)c1 [Compound 5a, 1-(3-Hydroxyphenyl)-3-(4-(trifluoromethyl)benzyl)urea] | 65 | 2.6 | –
28 | O=C(NCc1ccc(C(F)(F)F)cc1)c1ccc(O)cc1 [Compound 3h, 4-Hydroxy-N-(4-(trifluoromethyl)benzyl)benzamide] | 100 | 0.27 | –
